Measured values taken from patent EP0819124B1, “AZOLE COMPOUNDS WITH ANTIMYCOTIC ACTIVITY FOR HUMAN AND VETERINARY USE” (ZAMBON GROUP S.p.A., priority 1995, dated 1996).
≈ marks a conversion by molar mass, not a printed value. Like-named read-outs stand apart in the source and are kept apart here.

Legend:
C. albicans 1040 = assay: In vitro antimycotic activity, macromethod of scalar broth dilutions (YNB); assay type: cell-based, Candida albicans; settings: Candida albicans; C. albicans 1040; YNB, incubation at 35°C for 48 hours; read-out: IC50
Experimental: (§1) The determination of the activity inhibiting the growth of mycetes was evaluated by the macromethod of scalar brothdilutions in geometrical progression (M.R. McGinnis and M.G. Rinaldi, "Antifungal drugs: mechanisms of action, drug resistance, susceptibility testing and assay of activity in biological fluids", in Antibiotic in Laboratory Medicine, Ed. V. Lorian, Baltimora 1991).
(§2) As culture media Yeast Nitrogen Base broth (YNB) and Sabouraud Dextrose broth (SDB) were used for yeasts and moulds, respectively.
(§3) The results obtained in SDB (after incubation at 28°C for 7 days) were expressed as minimum inhibiting concentrations (MIC) the growth of mycetes, while those obtained in YNB (after incubation at 35°C for 48 hours) were expressed as concentrations able to inhibit at 50% (IC50) the growth of the yeast.
(§4) As reference compounds Fluconazole, Itraconazole and Genaconazole were used.

C. neoformans = assay: as above; assay type: cell-based; settings: Cryptococcus neoformans; C. neoformans; YNB, incubation at 35°C for 48 hours; read-out: IC50
Experimental: as §1, §2, §3, §4

T.mentagrophytes = assay: In vitro antimycotic activity, macromethod of scalar broth dilutions (SDB); assay type: cell-based, Trychophyton mentagrophytes; settings: Trichophyton mentagrophytes, 168 h; T.mentagrophytes; SDB, incubation at 28°C for 7 days; read-out: MIC
Experimental: as §1, §2, §3, §4

A. fumigatus = assay: as above; assay type: cell-based; settings: Aspergillus fumigatus, 168 h
Experimental: as §1, §2, §3, §4

Candida albicans 1040 = assay: In vivo antimycotic activity in mice experimentally infected by C. albicans, oral route; set-up: species or system Charles River white mice (CD1 strain); settings: for PD50 at 8th day / PD50 at 14th day: oral route, probits analysis; for PD50 at 8th day: 8 days from the infection; for PD50 at 14th day: 14 days from the infection; for antimycotic activity in comparison with the compounds of formula II, statement in words: test not named, only in vivo data are printed for R1 and R2
Experimental: Charles River white mice (CD1 strain) weighing from 23 to 25 g, normo-feeded with standard diet and water ad libitum were used.
A suspension (0.2 ml containing 2.5x10^7 cells/ml) of Candida albicans 1040 in physiologic solution was injected to each animal by venous route. Immediately after the infection and after 4, 24 and 48 hours, the animals received by oral route (in arabic gum at 2%) doses increasing in a geometrical progression of the compound to be tested. The infected group was used as control.
The observation of the mortality of the mice was prolonged up to 14 days. From the number of survived animals for each concentration the average protective dose (DP50) was calculated by probits analysis (L.Lison - "Statistica applicata alla biologia sperimentale. La programmazione dell'esperimento e l'analisi dei risultati" - Casa Editrice Ambrosiana, 1961).
Compounds R1 and R2 were used as comparative compounds.
Fluconazole and Itraconazole were used as reference compounds.

B. capitatus (1) = assay: In vitro antimycotic activity, strain panel (Table 2); assay type: cell-based; settings: Magnusiomyces capitatus; B. capitatus, 1 strain; single value under head MIC50 MIC90; read-out: MIC
Experimental: as §1, §2, §3, §4
(§5) Note to the table: MIC expressed as µg/ml Within brackets the number of tested strains Table 3

C. albicans (7) = assay: as above; assay type: cell-based; settings: Candida albicans, C. albicans, 7 strains; for MIC50: read-out: MIC50; for MIC90: read-out: MIC90
Experimental: as §1, §2, §3, §4, §5

C. neoformans (4) = assay: as above; assay type: cell-based; settings: Cryptococcus neoformans, C. neoformans, 4 strains; for MIC50: read-out: MIC50; for MIC90: read-out: MIC90
Experimental: as §1, §2, §3, §4, §5

[1] = test system: C. spp * (5) (C. parapsilosis, lusitaniae, kefyr); assay: as above; assay type: cell-based; settings: Lodderomyces parapsilosis, C. parapsilosis, lusitaniae, kefyr, 5 strains; for MIC50: read-out: MIC50; for MIC90: read-out: MIC90
Experimental: as §1, §2, §3, §4, §5

C. tropicalis (2) = assay: as above; assay type: cell-based; settings: Candida tropicalis; C. tropicalis, 2 strains; single value or range printed under head MIC50 MIC90; read-out: MIC
Experimental: as §1, §2, §3, §4, §5

Trichosporon sp. (1) = assay: as above; assay type: cell-based; settings: Trichosporon sp., 1 strain; single value under head MIC50 MIC90; read-out: MIC
Experimental: as §1, §2, §3, §4, §5

C. krusei (2) = assay: as above; assay type: cell-based, Candida krusei; settings: Pichia kudriavzevii; C. krusei, 2 strains; range printed under head MIC50 MIC90; read-out: MIC
Experimental: as §1, §2, §3, §4, §5

Fusarium sp = assay: In vitro antimycotic activity against recently isolated Fusarium strains (Tables 2 and 3); assay type: cell-based; settings: quantity and unit not given in Table 3
Experimental: as §1, §2, §3, §4, §5

A. niger = assay: In vitro antimycotic activity against recently isolated Aspergillus niger (Table 3); assay type: cell-based; settings: A. niger strain 94-6222; quantity and unit not given in Table 3
Experimental: as §1, §2, §3, §4

[2] = A. fumigatus, SDB, incubation at 28°C for 7 days, read-out: MIC

## CC(C)(COC(F)(F)C(F)C(F)(F)F)C(O)(Cn1cncn1)c1ccc(F)cc1F (racemic) [Compound 9]
C. albicans 1040
  IC50: 0.0156 µg/mL (≈ 0.0349 µM)
C. neoformans
  IC50: 0.125 µg/mL (≈ 0.279 µM)
T.mentagrophytes
  MIC: 2 µg/mL (≈ 4.47 µM)
A. fumigatus; [2]
  MIC: > 128 µg/mL
Candida albicans 1040
  PD50 at 8th day: 0.89 mg/kg/os
  PD50 at 14th day: 1.57 mg/kg/os

## CC(C)(COCC(F)(F)C(F)F)C(O)(Cn1cncn1)c1ccc(F)cc1F (racemic) [Compound 10, (±)-1-(1H-1,2,4-triazolyl)-2-hydroxy-2-(2,4-difluorophenyl)-3,3-dimethyl-4-(2,2,3,3-tetrafluoropropoxy)butane]
C. albicans 1040
  IC50: 0.0156 µg/mL (≈ 0.0379 µM)
C. neoformans
  IC50: 0.0625 µg/mL (≈ 0.152 µM)
T.mentagrophytes
  MIC: 0.5 µg/mL (≈ 1.22 µM)
A. fumigatus; [2]
  MIC: 8 µg/mL (≈ 19.4 µM)

## CC(C)(COC(F)(F)F)C(O)(Cn1cncn1)c1ccc(F)cc1F (racemic) [Compound 12, (±)-1-(1H-1,2,4-triazolyl)-2-hydroxy-2-(2,4-difluorophenyl)-3,3-dimethyl-4-trifluoromethoxy-butane]
C. albicans 1040
  IC50: 0.0156 µg/mL (≈ 0.0427 µM)
C. neoformans
  IC50: 0.0156 µg/mL (≈ 0.0427 µM)
T.mentagrophytes
  MIC: 0.125 µg/mL (≈ 0.342 µM)
A. fumigatus; [2]
  MIC: 4 µg/mL (≈ 10.9 µM)
Candida albicans 1040
  PD50 at 8th day: 1.09 mg/kg/os
  PD50 at 14th day: 1.39 mg/kg/os

## OC(Cn1cncn1)(Cn1cncn1)c1ccc(F)cc1F [Fluconazole, reference compound]
C. albicans 1040
  IC50: 0.5 µg/mL (≈ 1.63 µM)
C. neoformans
  IC50: 2 µg/mL (≈ 6.53 µM)
T.mentagrophytes
  MIC: 16 µg/mL (≈ 52.2 µM)
A. fumigatus
  MIC: > 128 µg/mL
B. capitatus (1)
  MIC: 4 µg/mL (≈ 13.1 µM)
C. albicans (7)
  MIC50: 4 µg/mL (≈ 13.1 µM)
  MIC90: 32 µg/mL (≈ 104 µM)
C. neoformans (4)
  MIC50: 1 µg/mL (≈ 3.27 µM)
  MIC90: 32 µg/mL (≈ 104 µM)
[1]
  MIC50: 1 µg/mL (≈ 3.27 µM)
  MIC90: 2 µg/mL (≈ 6.53 µM)
C. tropicalis (2)
  MIC: 4 to 16 µg/mL (≈ 13.1 to 52.2 µM)
Trichosporon sp. (1)
  MIC: 32 µg/mL (≈ 104 µM)
Candida albicans 1040
  PD50 at 8th day: 0.125 mg/kg/os
  PD50 at 14th day: 0.61 mg/kg/os

## CCC(C)n1ncn(-c2ccc(N3CCN(c4ccc(OCC5COC(Cn6cncn6)(c6ccc(Cl)cc6Cl)O5)cc4)CC3)cc2)c1=O (stereo not drawn) [Itraconazole, reference compound]
C. krusei (2)
  MIC: 0.03 to 0.12 µg/mL (≈ 0.0425 to 0.17 µM)
C. albicans (7)
  MIC50: 0.06 µg/mL (≈ 0.085 µM)
  MIC90: 0.12 µg/mL (≈ 0.17 µM)
C. neoformans (4)
  MIC50: ≤ 0.03 µg/mL
  MIC90: 0.1 µg/mL (≈ 0.142 µM)
[1]
  MIC50: ≤ 0.03 µg/mL
  MIC90: 0.06 µg/mL (≈ 0.085 µM)
C. tropicalis (2)
  MIC: 0.1 µg/mL (≈ 0.142 µM)
Fusarium sp; Fusarium sp strain 81-256
  In vitro antimycotic activity: 2
Fusarium sp; Fusarium sp strain 86-3369
  In vitro antimycotic activity: 2-16
Fusarium sp; Fusarium sp strain 88-2116
  In vitro antimycotic activity: 2-8
Fusarium sp; Fusarium sp strain 946301
  In vitro antimycotic activity: 2-16
A. niger
  In vitro antimycotic activity: ≤0.03
Candida albicans 1040; mice infected by C. albicans, dose 25 mg/kg/os, day 3
  % percentage of survival after day 3: 100%
Candida albicans 1040; mice infected by C. albicans, dose 25 mg/kg/os, day 6
  % percentage of survival after day 6: 100%
Candida albicans 1040
  PD50 at 8th day: 2.31 mg/kg/os
  PD50 at 14th day: >8 mg/kg/os

## (±)-1-(1H-1,2,4-triazolyl)-2-hydroxy-2-(2,4-difluorophenyl)-3,3-dimethyl-4-ethoxy-butane [Compound R1, reference compound]
Candida albicans 1040
  PD50 at 8th day: >4 mg/kg/os
  PD50 at 14th day: >4 mg/kg/os
  antimycotic activity in comparison with the compounds of formula II, statement in words: substantially inactive

## (±)-1-(1H-1,2,4-triazolyl)-2-hydroxy-2-(2,4-difluorophenyl)-3-(2,2,3,3-tetrafluoropropoxy)butane [Compound R2, reference compound]
Candida albicans 1040
  PD50 at 8th day: >4 mg/kg/os
  PD50 at 14th day: >4 mg/kg/os
  antimycotic activity in comparison with the compounds of formula II, statement in words: substantially inactive
